Results taken from US7173061B2, “Compounds for imaging alzheimer's disease” (GE Healthcare Limited, priority 2001, dated 2007).
No end group written: not given here.

These compounds were tested against T1, amyloid 1-40 fibrils (fibrillar BAP 1-40) (Homo sapiens, UniProt P05067) (assay: Determination of amyloid binding (scintillation proximity assay beads coated with fibrillar BAP 1-40)). Conditions: SPA-BAP beads, 180 minutes at room temperature, equimolar amounts, SPA-NSB counts subtracted; 125I-BAP binding taken as 100%.
T1 construct: used to immobilise fibrillar Beta-Amyloid Protein (BAP 1-40); purchased Biosource 03-138 (BAP 1-40); 03-243 (biotinylated BAP 1-40)
Experimental: The binding of Compounds was determined compared to the ability of ^125I-beta amyloid protein 1-40 (^125I-BAP 1-40, Amersham Biosciences IM294)) to bind to amyloid 1-40 fibrils. Amyloid binding was essentially performed as follows.
Three fresh buffer stocks were prepared for experiments: Buffer 1, 50 mM HEPES/0.1% Bovine Serum Albumin (BSA) pH 7.5; Buffer 2, 50 mM HEPES/0.1% BSA/400 μM ZnCl2 pH 7.5; Buffer 3, 50 mM HEPES/0.1% BSA/100 μM ZnCl2 pH 7.5.
Streptavidin coated scintillation proximity assay beads (SA-SPA beads, Amersham Biosciences) were used to immobilise fibrillar Beta-Amyloid Protein (BAP 1-40). Amyloid coated beads (SPA-BAP) were prepared by incubating 250 μl SA-SPA beads (100 mg/ml) with 250 μl Buffer 2, 425 μl Buffer 1, 50 μl biotinylated BAP 1-40 (0.5 mg/ml, Biosource 03–243), 25 μl BAP 1-40 (10 mg/ml, Biosource 03–138). Non-specific binding SPA beads (SPA-NSB) were prepared to assess the binding of compounds to SPA beads with no associated BAP 1-40 fibrils in the following incubation: 250 μl SA-SPA beads (100 mg/ml) with 250 μl Buffer 2, 500 μl Buffer 1.
SPA-BAP and SPA-NSB incubations were left for 24 hours at room temperature and then spun 1.5 ml tubes (eppendorf, Merk, 306/0421/12) for 2 minutes at 1000×g. The supernatants were removed and the beads were washed twice by resuspending them in 1 ml Buffer 3 followed by centrifugation for 2 minutes at 1000×g. Finally, washed SPA-BAP and SPA-NSB beads were resuspended in 1 ml Buffer 3.
Amyloid binding of ^125I-BAP 1-40 and test compounds was performed in triplicate in 0.5 ml tubes (eppendorf, Merk, 306/0421/02) by adding 50 μl SPA-BAP beads to 25 μl Buffer 2 and 25 μl labelled compound (^125I-BAP 1-40 or test compound). Tubes were then incubated for 180 minutes at room temperature with shaking, followed by centrifugation for 2 minutes at 1000×g. The supematants were removed and SPA-BAP pellet washed twice with 300 μl Buffer 3 containing 1% TWEEN-20 (Sigma, P7949). Non-specific binding for labelled compounds to the SPA beads was determined using incubations as described above but by substituting SPA-BAP beads with SPA-NSB beads. Radioactivity associated with the washed SPA bead pellets was then determined.
The affinity of labelled compounds for fibrillar BAP 1-40 was estimated by subtracting SPA-NSB associated counts from SPA-BAP associated counts. The binding of labelled compounds was then compared to ^125I-BAP binding, which was taken as being 100%.
In these experiments, ^125I-BAP 1-40 or test compounds were added in equimolar amounts.

T1 sequence (P05067 672-711): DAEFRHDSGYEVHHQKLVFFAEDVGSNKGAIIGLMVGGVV

Amyloid binding (% of 125I-BAP 1-40)	Compound
23%	CCN(CC)CCOc1ccc(C(=O)c2c(-c3ccc(OCC(=O)NCCN(CCNC(C)(C)/C(C)=N\O)CCNC(C)(C)/C(C)=N\O)cc3)oc3ccc(Cl)cc23)cc1 [Example 1(vii) Pn216 conjugated]
15%	CCN(CC)CCCOc1ccc(C(=O)c2c(-c3ccc(OCC(=O)NCCN(CCNC(C)(C)/C(C)=N/O)CCNC(C)(C)/C(C)=N/O)cc3)oc3ccc(Cl)cc23)cc1 [Example 2(vii) Pn216 conjugated]
40%	C/C(=N\O)C(C)(C)NCCN(CCNC(=O)COc1ccc(-c2cc3cc(Cl)ccc3o2)cc1)CCNC(C)(C)/C(C)=N/O [Example 8(iii) Pn216 conjugated]
100%	^125I-BAP 1-40: 125I-beta amyloid protein 1-40, Amersham Biosciences IM294; reference whose binding to amyloid fibrils is taken as 100% [reference compound]
21%	^125I-KKLVFFA (BAP 15-21): 125I-labelled BAP 15–21 sequence (Amersham Biosciences), responsible for the binding of BAP to itself (also: 125I label) [reference compound]
